Reference: PubChem BioAssay AID316 (DTP/NCI, 2004)
Several values for one entry are separate records, joined by “and”; a condition that tells them apart may be missing. Identical values can stand only once. Toxic doses and inconclusive results are not listed.

System: P1534 leukemia ip, CD2F1 mice, survival T/C
Test: NCI In Vivo Anticancer Drug Screen. Data for tumor model P1534 Leukemia (intraperitoneal) in CD2F1 (CDF1) mice
Details: endpoint: mean survival time, higher = longer survival
Procedure: The antitumor activity of compounds was measured in mice bearing transplantable tumors. Survival or tumor size were measured and the results are expressed as the measurement made in the treated group (T) divided by the measurement made in the vehicle treated control group (C). The tumor model used in this assay is P1534 Leukemia (intraperitoneal) in CD2F1 (CDF1) mice

[1] = dose: 50.0 mg/kg/injection, schedule: Q01DX010 (ip), vehicle: saline
[2] = dose: 100.0 mg/kg/injection, schedule: Q01DX010 (ip), vehicle: saline
[3] = dose: 200.0 mg/kg/injection, schedule: Q01DX010 (ip), vehicle: saline
[4] = dose: 400.0 mg/kg/injection, schedule: Q01DX010 (ip), vehicle: saline
[5] = dose: 6.25 mg/kg/injection, schedule: Q01DX010 (ip), vehicle: saline
[6] = dose: 5.0 mg/kg/injection, schedule: Q01DX010 (ip), vehicle: saline
[7] = dose: 10.0 mg/kg/injection, schedule: Q01DX010 (ip), vehicle: saline
[8] = dose: 25.0 mg/kg/injection, schedule: Q01DX010 (ip), vehicle: saline
[9] = dose: 62.5 mg/kg/injection, schedule: Q01DX010 (ip), vehicle: saline
[10] = dose: 125.0 mg/kg/injection, schedule: Q01DX010 (ip), vehicle: saline

## CC(=O)NCCCCCCNC(C)=O
[1]
  T/C: 93 % of control
[2]
  T/C: 96 % of control
[3]
  T/C: 96 % of control
[4]
  T/C: 100 % of control

## O=c1cccc2n1CC1CNC[C@H]2C1
dose: 0.78 mg/kg/injection, schedule: Q01DX010 (ip), vehicle: saline
  T/C: 100 % of control
dose: 1.56 mg/kg/injection, schedule: Q01DX010 (ip), vehicle: saline
  T/C: 100 % of control
dose: 3.13 mg/kg/injection, schedule: Q01DX010 (ip), vehicle: saline
  T/C: 103 % of control
[5]
  T/C: 100 % of control

## CC(=O)NC1=C(N2CC2)C(=O)C(NC(C)=O)=C(N2CC2)C1=O
dose: 31.3 micrograms/kg/injection, schedule: Q01DX010 (ip), vehicle: saline
  T/C: 107 % of control
dose: 62.5 micrograms/kg/injection, schedule: Q01DX010 (ip), vehicle: saline
  T/C: 110 % of control

## C[C@@H]1C[C@@H]([C@H](O)CC2CC(=O)NC(=O)C2)C(=O)[C@@H](C)C1
[6]
  T/C: 112 % of control and 100 % of control
[7]
  T/C: 111 % of control and 112 % of control
dose: 20.0 mg/kg/injection, schedule: Q01DX010 (ip), vehicle: saline
  T/C: 111 % of control
dose: 40.0 mg/kg/injection, schedule: Q01DX010 (ip), vehicle: saline
  T/C: 105 % of control

## O=c1[nH]cnc2ccccc12
[8]
  T/C: 107 % of control
[1]
  T/C: 100 % of control
[2]
  T/C: 103 % of control
[3]
  T/C: 114 % of control

## COc1c(OC2OC(CO)C(O)C(O)C2O)cc2c(c1OC)-c1ccc(OC)c(=O)cc1C(NC(C)=O)CC2 (configuration not stated)
[5]
  T/C: 107 % of control
dose: 12.5 mg/kg/injection, schedule: Q01DX010 (ip), vehicle: saline
  T/C: 107 % of control
[8]
  T/C: 107 % of control
[1]
  T/C: 107 % of control and 110 % of control

## CC(=O)Nc1ccc(/C=N/Nc2ccc([N+](=O)[O-])cn2)cc1
[9]
  T/C: 100 % of control
[10]
  T/C: 100 % of control
dose: 250.0 mg/kg/injection, schedule: Q01DX010 (ip), vehicle: saline
  T/C: 96 % of control

## CC(=O)c1ccc[nH]1
[9]
  T/C: 100 % of control
[10]
  T/C: 96 % of control

## COc1ccc2c(=O)cc(-c3ccccc3)n(C)c2c1
[1]
  T/C: 103 % of control
[2]
  T/C: 103 % of control
[3]
  T/C: 103 % of control
[4]
  T/C: 96 % of control

## COC1=C(N)C(=O)c2nc(-c3nc(C(=O)O)c(C)c(-c4ccc(OC)c(OC)c4O)c3N)ccc2C1=O
dose: 0.06 mg/kg/injection, schedule: Q01DX010 (ip), vehicle: saline
  T/C: 117 % of control
dose: 0.09 mg/kg/injection, schedule: Q01DX010 (ip), vehicle: saline
  T/C: 110 % of control
dose: 0.13 mg/kg/injection, schedule: Q01DX010 (ip), vehicle: saline
  T/C: 103 % of control

## COc1ccc(C2NC(C(=O)O)Cc3c2[nH]c2ccccc32)cc1OC (configuration not stated)
[1]
  T/C: 96 % of control
[2]
  T/C: 100 % of control
[3]
  T/C: 100 % of control
[4]
  T/C: 100 % of control

## CC/C(=C(/CC)c1ccc(O)cc1)c1ccc(O)cc1
dose: 12.5 mg/kg/injection, schedule: Q01DX010 (sc), vehicle: steriod suspending solution
  T/C: 95 % of control and 100 % of control
dose: 25.0 mg/kg/injection, schedule: Q01DX010 (sc), vehicle: steriod suspending solution
  T/C: 95 % of control and 100 % of control
dose: 50.0 mg/kg/injection, schedule: Q01DX010 (sc), vehicle: steriod suspending solution
  T/C: 95 % of control and 100 % of control
dose: 100.0 mg/kg/injection, schedule: Q01DX010 (sc), vehicle: steriod suspending solution
  T/C: 90 % of control and 100 % of control

## Nc1nc(=S)c2[nH]cnc2[nH]1
dose: 1.25 mg/kg/injection, schedule: Q01DX010 (ip), vehicle: saline
  T/C: 161 % of control and 181 % of control
dose: 2.5 mg/kg/injection, schedule: Q01DX010 (ip), vehicle: saline
  T/C: 150 % of control
[6]
  T/C: 122 % of control
[7]
  T/C: 105 % of control

## O=[n+]1c2c(n([O-])c3ccccc31)-c1cccc3cccc-2c13
[8]
  T/C: 92 % of control and 96 % of control
[1]
  T/C: 103 % of control and 92 % of control
[2]
  T/C: 92 % of control and 96 % of control
[3]
  T/C: 92 % of control

## CN1C2CCC1CC(OC(=O)C(CO)c1ccccc1)C2 (configuration not stated)
[8]
  T/C: 96 % of control
[1]
  T/C: 100 % of control
